Where a name gives a salt, the structure may show the parent alone.

In the assay the target is T1, Porcine DPP-IV (Sus scrofa, UniProt P22411).
T1 construct: purchased Sigma-Aldrich Germany
Kind of assay: Assay of DPP-IV enzyme inhibitory activity (spectrophotometric, Gly-Pro-pNA cleavage). Conditions: Porcine DPP-IV, Gly-Pro-pNA substrate, 30° C.; mean ± SD of three experiments except compound Nos. 133 & 139; read-out: IC50 (μM) Mean ± SD, inhibitory activity on DPP-IV enzyme activity. Format: biochemical. How it is done: Assay of DPP-IV Enzyme Inhibitory Activity.
The assay method is a modified method (as described by Welch et al, 1998) based on spectrophotometric determination of the product formed by penultimate proline cleaving activity of the enzyme.
Assay protocol involves incubation of the enzyme dipeptidyl peptidase IV with the test substance at 30° C. for 30 min followed by addition of this reaction mixture to the substrate Gly-Pro-pNA that was equilibrated at 30° C. for 2 min. The enzyme cleaves the substrate at penultimate proline and releases p-nitroanilide, the optical density of which is measured at 385 nm. The formation of p-nitroanilide will be reduced in the presence of inhibitor. […] The activity of molecule is expressed in terms of % inhibition. At least three different concentrations were tried out for each of the test substances. The percentage inhibitions for each of the concentrations were plotted and an IC50 of the test compound was worked out. The enzyme inhibitory activity of different test compounds were compared based on the IC50 values.
The percentage inhibition % I, is calculated using the formula:
% I=[(1−vi/v0)]*100 where vi and v0 are the Vmax values with and without the test substance, respectively.
Substrate solution: 0.5 mM in 45 mM phosphate buffer
Substrate used: Gly-Pro-p-nitroanilide (Source: Sigma-Aldrich Co. Germany)
3.288 mg substrate in 1 ml 45 mM phosphate buffer was prepared as stock solution. 0.25 ml of this stock solution was diluted to 5 ml to get 0.5 mM substrate solution (90 μl to be added in each well). The stock solution of the substrate was used within three days of preparation.
Enzyme solution: Porcine DPP-IV (Sigma-Aldrich Germany) was used throughout the study. 0.4 mU in 80 μl of Tris. HCl buffer was prepared. Fresh solutions were prepared everyday for the assays.
Various concentrations of inhibitor were used: 0.391 μM, 0.781 μM, and 3.125 μM. Solutions of inhibitor were prepared and used on the same day.
280 μl of enzyme solution (0.4-mU/80 μl in Tris HCl buffer) was added to the eppendorf containing 70 μl solution of inhibitor or vehicle and mixed. This reaction mixture was incubated for 30 min at 30° C. The 96 well plate containing substrate solution was thermally equilibrated in the spectrophotometer for 2 min at 30° C. Later 100 μl of the enzyme-inhibitor pre-incubation solution was added to respective wells in a 96 well plate. Each concentration of the inhibitor was tested in triplicates.
The rate of change in UV absorbance (in presence of various concentrations of the inhibitor) was measured at 385 nm, with respect to wells containing only 0.5 mM substrate in 45 mM phosphate buffer as blank at every 10 min for 2 hours after adding enzyme-inhibitor mixture to wells containing substrate solution.

T1 sequence (P22411 whole entry): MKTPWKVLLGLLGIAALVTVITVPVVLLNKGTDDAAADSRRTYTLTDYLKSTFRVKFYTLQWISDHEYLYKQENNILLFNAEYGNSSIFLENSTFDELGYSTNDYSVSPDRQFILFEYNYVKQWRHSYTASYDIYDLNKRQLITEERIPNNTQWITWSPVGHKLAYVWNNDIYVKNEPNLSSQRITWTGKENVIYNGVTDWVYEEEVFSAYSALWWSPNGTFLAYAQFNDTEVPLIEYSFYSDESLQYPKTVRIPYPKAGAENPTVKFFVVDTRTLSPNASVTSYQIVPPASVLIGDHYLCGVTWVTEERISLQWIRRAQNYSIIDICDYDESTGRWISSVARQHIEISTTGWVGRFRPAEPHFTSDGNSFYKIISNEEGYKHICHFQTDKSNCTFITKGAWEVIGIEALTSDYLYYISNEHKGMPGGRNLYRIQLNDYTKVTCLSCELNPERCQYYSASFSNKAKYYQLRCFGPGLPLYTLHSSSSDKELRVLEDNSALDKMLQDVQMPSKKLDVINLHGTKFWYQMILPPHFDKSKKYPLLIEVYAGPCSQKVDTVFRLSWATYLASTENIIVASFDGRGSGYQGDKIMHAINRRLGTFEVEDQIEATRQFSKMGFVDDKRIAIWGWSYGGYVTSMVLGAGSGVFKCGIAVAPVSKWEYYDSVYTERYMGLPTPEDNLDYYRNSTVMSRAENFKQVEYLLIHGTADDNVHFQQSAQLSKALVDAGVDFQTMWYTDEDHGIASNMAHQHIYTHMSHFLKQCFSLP

One may read the IC50 as the midpoint of a concentration-inhibition curve. As for `N#CC1CSCN1C(=O)CN(N)C1CCC(NCC(=O)Nc2ccc(Cl)cc2)CC1` (stereo not shown) [Compound No. 113, 3-[1-oxo-2-[1-(4-(2-oxo-2-(4-chlorophenyl)aminoethyl)aminocyclohex-1-yl)]hydrazino]ethyl-4-cyanothiazolidine bis-trifluoroacetate], the IC50 was determined as 1.06 ± 0.3 µM. Take `N#CC1CCCN1C(=O)CN(N)C1CCCC1` (stereo not shown) [Compound No. 18, 1-[1-Oxo-2-((1-Cyclopentyl)-hydrazino)]ethyl-2-cyano pyrrolidine trifluoroacetate]: the IC50 is 32.1 ± 1.65 µM. Consider `N#CC1CSCN1C(=O)CN(N)C1CCC(NCC(=O)Nc2ccc(Cl)cn2)CC1` (stereo not shown) [Compound No. 111, 3-[1-oxo-2-[1-(4-(2-oxo-2-(5-chloropyridin-2-yl)aminoethyl)aminocyclohex-1-yl)]hydrazino]ethyl-4-cyanothiazolidine tris-trifluoroacetate], for which the IC50 stood at 0.563 ± 0.077 µM. As to `N#CC1CSCN1C(=O)CN(N)C1CCN(CC(=O)Nc2nccs2)CC1` (stereo not shown) [compound 134, 3-[1-oxo-2-(1-(1-(2-oxo-2-(thiazole-2-yl)-aminoethyl)piperidin-4-yl))hydrazino]ethyl-4-cyanothiazolidine, tris-trifluoroacetate], the IC50 stood at 0.205 ± 0.011 µM. On to `N#CC1CSCN1C(=O)CN(N)C1CCN(CCOc2ccccc2)CC1` (stereo not shown) [compound 123], for which the half-maximal inhibitory concentration (IC50) turned out to be 0.676 ± 0.07 µM.

Regarding `N#CC1CSCN1C(=O)CN(N)C1CCN(CC(=O)Nc2nc3ccccc3s2)CC1` (stereo not shown) [compound 138], the IC50 was determined as 0.104 ± 0.009 µM. With `CC(C)CN(N)CC(=O)N1CCCC1C#N` (stereo not shown) [Compound No. 10, 1-[1-Oxo-2-(1-(2-methylpropyl)hydrazino)]ethyl-2-cyano pyrrolidine trifluoroacetate], the IC50 came out at 69.8 ± 17.5 µM.

For `CCNN(CC(=O)N1CSCC1C#N)C1CCC(C)CC1` (stereo not shown) [Compound No. 42, 3-[1-Oxo-2-(1-(4-methylcyclohexyl)-2-ethyl)hydrazino]ethyl-4-cyanothiazolidine trifluoroacetate], the IC50 was determined as 0.53 ± 0.09 µM.

Take `N#CC1CSCN1C(=O)CN(N)c1ccccc1` (stereo not shown) [Compound No. 9, 3-[1-Oxo-2-((1-phenyl)hydrazino)]ethyl-4-cyano Thiazolidine Trifluoroacetate]: the half-maximal inhibitory concentration (IC50) stood at 6.18 ± 0.88 µM.

As for `CC1CCC(NNCC(=O)N2CCCC2C#N)CC1` (stereo not shown) [Compound No. 37, 1-[1-Oxo-2-(4-methylcyclohexyl)hydrazino]ethyl-2-cyanopyrrolidine trifluoroacetate], the IC50 worked out at 28.3 ± 4.6 µM. For `N#CC1CCCN1C(=O)CN(N)C1CCCc2ccccc21` (stereo not shown) [Compound No. 48, 1-[1-Oxo-2-(1-tetralinyl)hydrazino]ethyl-2-cyanopyrrolidine trifluoroacetate], the IC50 was 45.2 ± 1.21 µM. For `N#CC1CCCN1C(=O)CN(N)C1CCCCC1` (stereo not shown) [Compound No. 20, 1-[1-Oxo-2-((1-Cyclohexyl)-hydrazino)]ethyl-2-cyano pyrrolidine trifluoroacetate] the value was 33.7 ± 0.99 µM; for `N#CC1CSCN1C(=O)CN(NC(=O)NCCc1ccccn1)C(=O)NCCc1ccccn1` (stereo not shown) [Compound No. 46, 3-[1-Oxo-2-(1,2-bis-(2-(2-pyridyl)ethylaminocarbonyl)hydrazino)]ethyl-4-cyano thiazolidine bis trifluoroacetate], 78.6 ± 4.58 µM; for `CC(C)(C)OC(=O)NNCC(=O)N1COCC1C#N` (stereo not shown) [compound 147, 3-[-oxo-2-(2-ter-butyloxycarbonyl) hydrazino]ethyl-4-cyanooxazolidine], 150 ± 43 µM. `CC(C)NN(CC(=O)N1CCCC1C#N)C1CCCCC1` (stereo not shown) [Compound No. 38, 1-[1-Oxo-2-(1-cyclohexyl-2-isopropyl)hydrazino]ethyl-2-cyano pyrrolidine]: the IC50 amounted to 96.9 ± 23 µM. Consider `CCN(CC)NCC(=O)N1CSCC1C#N` (stereo not shown) [Compound No. 13, 1-[1-Oxo-2-((2,2-diethyl)-hydrazino)]ethyl-2-cyano thiazolidine], for which the IC50 was determined as 57.1 ± 3.76 µM. On to `N#CC1CSCN1C(=O)CN(N)C1CCCCCC1` (stereo not shown) [Compound No. 28, 3-[1-Oxo-2-((1-Cycloheptyl)-hydrazino)] ethyl-4-cyano thiazolidine trifluoroacetate], for which the half-inhibitory concentration (IC50) was determined as 2.29 ± 0.11 µM. The figure for `N#CC1CSCN1C(=O)CNN` (stereo not shown) [Compound No. 15, 3-[1-Oxo-2-(1-hydrazino)]ethyl-4-cyano thiazolidine trifluoroacetate] is 41.9 ± 11.6 µM; for `N#CC1CCCN1C(=O)CN(N)c1ccccn1` (stereo not shown) [Compound No. 27, 1-[1-Oxo-2-(1-(2-Pyridyl)-hydrazino)]ethyl-2-cyano pyrrolidine bis-trifluoroacetate] it is 43 ± 2.76 µM; for `CC1CCC(NN(C)CC(=O)N2CSCC2C#N)CC1` (stereo not shown) [Compound No. 68, 3-[1-Oxo-2-(1-methyl-2-(4-methylcyclohexyl) hydrazino)]ethyl-4-cyanothiazolidine] it is 45.3 ± 3.03 µM. Regarding `N#CC1CCCN1C(=O)CN(N)C1CCCCCC1` (stereo not shown) [Compound No. 30, 1-[1-Oxo-2-((1-Cycloheptyl)-hydrazino)]ethyl-2-cyano pyrrolidine trifluoroacetate], the IC50 was found to be 35.1 ± 2.66 µM. The figure for `Cc1nc(NC(=O)CN2CCC(N(N)CC(=O)N3CSCC3C#N)CC2)sc1C` (stereo not shown) [compound 145, trihydrochloride] is 0.715 ± 0.06 µM; for `N#CC1CCCN1CC(=O)NN(CC(=O)N1CCCC1C#N)C1CCCCC1` (stereo not shown) [Compound No. 45, 1-[1-Oxo-2-[(1-cyclohexyl)-2-(2-cyano-1-pyrrolidinoacetyl)]hydrazino]ethyl-2-cyanopyrrolidine trifluoroacetate] it is 44 ± 1.92 µM. For `CC1CCC(N(N)CC(=O)N2CS(=O)(=O)CC2C#N)CC1` (stereo not shown) [Compound No. 67, 1,1-Dioxo-3-[1-oxo-2-(1-(4-methylcyclohexyl)hydrazino)]ethyl-4-cyanothiazolidine trifluoroacetate], the IC50 came out at 72.5 ± 7.05 µM. With `N#CC1CSCN1C(=O)CN(N)C1CCN(Cc2cccnc2)CC1` (stereo not shown) [Compound No. 57, 3-[1-Oxo-2-(1-(1-(3-pyridinemethyl)-4-piperidinyl) hydrazino)]ethyl-4-cyanothiazolidine tris trifluoroacetate], the half-inhibitory concentration (IC50) came to 4.77 ± 0.41 µM. For `CC(C)(C)C(=O)N1CCC(N(N)CC(=O)N2CSCC2C#N)CC1` (stereo not shown) [Compound No. 76, 3-[1-Oxo-2-(1-(1-(tert-butylcarbonyl)-piperidin-4-yl) hydrazino)]ethyl-4-cyanothiazolidine trifluoroacetate], the IC50 was 4.15 ± 0.29 µM.

Regarding `N#CC1CSCN1C(=O)CN(N)C1CCN(CC(=O)Nc2ccc(F)c(Cl)c2)CC1` (stereo not shown) [compound 128, 3-[1-oxo-2-(1-(1-(2-oxo-2-(3-chloro-4-fluoro-phenyl)aminoethyl)piperidine-4-yl))hydrazino]ethyl-4-cyanothiazolidine, bis-trifluoroacetate], the IC50 came to 0.342 ± 0.035 µM.

On to `N#CC1CSCN1C(=O)CN(N)C1CCN(CC(=O)NC2CC2)CC1` (single isomer, unassigned) [compound 146, 3-[1-oxo-2-(1-(1-(2-cyclopropyl-1-yl)aminoethyl)piperidin-4-yl)) hydrazino]ethyl-4-cyano thiazolidine, dihydrochloride], for which the half-maximal inhibitory concentration (IC50) was determined as 217 ± 9.07 µM. `N#CC1CSCN1CC(=O)NN(CC(=O)N1CCCC1C#N)C1CCCCC1` (stereo not shown) [Compound No. 50]: the IC50 was 60.1 ± 5.5 µM. As to `CC(C)(C)C1CCC(N(N)CC(=O)N2CSCC2C#N)CC1` (stereo not shown) [Compound No. 47, 3-[1-Oxo-2-(1-(4-tert-butylcyclohexyl)hydrazino)]ethyl-4-cyanothiazolidine trifluoro acetate], the 50% inhibitory concentration (IC50) is 1.14 ± 0.09 µM. As for `N#CC1CCCN1C(=O)CNNC1CCCCC1` (stereo not shown) [Compound No. 34, 1-[1-Oxo-2-(2-cyclohexyl) hydrazino] ethyl-2-cyanopyrrolidine trifluoroacetate], the IC50 was 30.3 ± 5.5 µM. As to `CCC(C)N(N)CC(=O)N1CCCC1C#N` (stereo not shown) [Compound No. 22, 1-[1-Oxo-2-((1-methylpropyl)hydrazino)]ethyl-2-cyano pyrrolidine trifluoroacetate], the 50% inhibitory concentration (IC50) came out at 76.5 ± 7.51 µM. The figure for `CCNN(CC(=O)N1CSCC1C#N)C(C)C` (stereo not shown) [Compound No. 80, 3-[1-Oxo-2-(1-isopropyl-2-ethyl)-hydrazino]-ethyl-4-cyanothiazolidine trifluoroacetate] is 2.27 ± 0.19 µM. The figure for `CC1CCC(NN(C)CC(=O)N2CSCC2C#N)CC1` (stereo not shown) [Compound No. 69, 3-[1-Oxo-2-(1-methyl-2-(4-methylcyclohexyl) hydrazino)]ethyl-4-cyanothiazolidine] is 69 ± 10.1 µM.
